Measurements as given in PubChem BioAssay (NCI).
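Five concentrations, 48 hours, 96-well plates. TGI marks complete inhibition of growth.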

What was measured:
Assay in all cases: NCI anticancer screen, dose series, 48 h
[1] = system: SNB-19 CNS
[2] = system: UO-31 renal
[3] = system: KM12 colon
[4] = system: U251 CNS
[5] = system: NCI-H522 lung
[6] = system: IGROV1 ovarian
[7] = system: DU-145 prostate
[8] = system: NCI-H23 lung
[9] = system: SF-268 CNS
[10] = system: SN12C renal
[11] = system: M14 melanoma
[12] = system: SF-295 CNS
[13] = system: RXF 393 renal
[14] = system: SK-OV-3 ovarian
[15] = system: CCRF-CEM leukemia
[16] = system: PC-3 prostate
[17] = system: OVCAR-8 ovarian
[18] = system: MDA-MB-435
[19] = system: MOLT-4 leukemia
[20] = system: A498 renal

Row | Structure (SMILES) | TGI [1] [µM] | TGI [2] [µM] | TGI [3] [µM] | TGI [4] [µM] | TGI [5] [µM] | TGI [6] [µM] | TGI [7] [µM] | TGI [8] [µM] | TGI [9] [µM] | TGI [10] [µM] | TGI [11] [µM] | TGI [12] [µM] | TGI [13] [µM] | TGI [14] [µM] | TGI [15] [µM] | TGI [16] [µM] | TGI [17] [µM] | TGI [18] [µM] | TGI [19] [µM] | TGI [20] [µM]
1 | COC(=O)c1ccc(/C=C2\Oc3cc(O)ccc3C2=O)cc1 | > 100 | > 100 | > 100 | > 100 | > 100 | > 100 | > 100 | > 100 | > 100 | > 100 | > 100 | > 100 | 77.3 | > 100 | > 100 | > 100 | > 100 | > 100 | > 100 | 
2 | COc1ccc(/C=C2\N=C(c3ccccc3)OC2=O)cc1OC(C)=O | > 100 | > 100 |  | > 100 |  | > 100 | > 100 | > 100 | > 100 | > 100 | > 100 |  | > 100 | > 100 | 74.4 | > 100 | > 100 | > 100 | 26.1 | > 100
3 | Cc1cc2cc3ccccc3cc2c(=O)[nH]1 | > 10 | > 10 | > 10 | > 10 | > 10 | > 10 | > 10 | > 10 | > 10 |  | > 10 | > 10 | > 10 | > 10 | > 10 | > 10 | > 10 | > 10 | > 10 | 
4 | O=c1c2cc(S(=O)(=O)Nc3ccc(Cl)cc3Cl)ccc2ncn1NS(=O)(=O)c1cccc2ccccc12 | > 100 | 62.3 | > 100 | > 100 | > 100 | > 100 | > 100 | > 100 | > 100 | > 100 | > 100 | > 100 |  | > 100 | 47.7 | > 100 | > 100 | > 100 | 85.5 | 
5 | NNc1ncc2c(n1)-c1ccccc1OC2 | > 100 | > 100 | > 100 | > 100 | > 100 | > 100 | > 100 | > 100 | > 100 | > 100 | > 100 | > 100 | > 100 | > 100 | > 100 | > 100 | > 100 | > 100 | > 100 | 
6 | COCOc1c(C(OCOC)c2cnc(Sc3ccccc3)n2C)ccc(OC)c1OC (stereo not drawn) | > 100 | > 100 | > 100 | > 100 | > 100 | > 100 | > 100 | > 100 | > 100 | > 100 |  | > 100 | > 100 | > 100 | > 100 | > 100 | > 100 | > 100 | > 100 | 
7 | O=C1N(CN2CCOCC2)CN(CN2CCOCC2)C(=O)N1Cc1ccc(CN2C(=O)N(CN3CCOCC3)CN(CN3CCOCC3)C2=O)cc1 | > 100 | > 100 | > 100 | > 100 | > 100 | > 100 | > 100 | > 100 | > 100 | > 100 | > 100 | > 100 |  | > 100 | > 100 | > 100 | > 100 | > 100 | > 100 | > 100
8 | COCCOC1=C(Cl)C(=O)c2c(O)ccc(O)c2C1=O | 29.2 | 3.83 | 26.8 | 12.1 | 1.67 | 6.27 | 13.2 | 9.54 | 13 | 4.04 | 3.22 | 35.1 | 1.7 | 30.7 |  | 13 | 6.66 | 2.23 | 0.481 | 22.2
9 | Cc1ccc(S(=O)(=O)N/N=C2\CC(C)OC3=C2CCCCCC3)cc1 (stereo not drawn) | 44.1 | 31.2 | 37.4 |  |  | 38.2 | 37.6 | 41.6 | 38.4 | 34.4 | 36.2 | 35.9 | 32.4 | 62.8 | > 100 | 38.9 | 45.2 | 34.6 | 55.9 | 29.7
10 | O=c1oc2c/c(=C\c3ccccn3)c(=O)c3cccc1c3-2 | > 100 |  | > 100 |  | > 100 | > 100 | > 100 | > 100 | > 100 | > 100 | > 100 | > 100 | 37.7 | > 100 | > 100 | > 100 | 54.4 | > 100 | > 100 | 
11 | COc1ccc2nc3c([N+](=O)[O-])ccc(NCCN(C)C)c3c(NCCN(C)C)c2c1 |  |  | 2.82 |  |  | 5.13 | > 10 | 3.04 | > 10 | 2.78 | > 10 | 3.03 | 2.33 | > 10 | 1.78 | 2.02 | 3.04 | 3.01 | 0.732 | 
12 | CCOC(=O)C(NC(=O)c1cccc(Cl)c1)(N1CCN(c2cc3c(cc2F)c(=O)c(C(=O)O)cn3C2CC2)CC1)C(F)(F)F (stereo not drawn) | 84.9 | 47.3 | 23.9 | 18.3 |  | 41.5 | 70.5 | 37.1 | 29.1 | 93.9 | 33.2 | 53.5 | 34.4 | 66.5 | 9.78 | 34.6 | 60.7 | 28.8 | 15.9 | 55.7
13 | O=C(N/N=C/c1ccc(Cl)cc1)c1ccccc1Nc1ccccc1C(=O)N/N=C/c1ccc(Cl)cc1 | > 100 | > 100 | > 100 | > 100 |  | > 100 | > 100 | > 100 | > 100 | > 100 | > 100 | > 100 | > 100 | > 100 | > 100 | > 100 | > 100 | > 100 | > 100 | > 100
14 | O=C(c1ccccc1)N1CCC(Nc2nccs2)O1 (stereo not drawn) | > 10 | > 10 |  |  | > 10 | > 10 | > 10 | > 10 | > 10 | > 10 | > 10 | > 10 | > 10 | > 10 | > 10 | > 10 | > 10 | > 10 | > 10 | 
15 | N#C/C(C(=O)Nc1ccc(Cl)cc1)=C(/N)N1CCOCC1 | > 100 | > 100 | > 100 | > 100 |  | > 100 | > 100 | > 100 |  | > 100 | > 100 | > 100 |  | > 100 | > 100 | > 100 | > 100 | > 100 | > 100 | > 100
16 | N=c1oc2ccc(Cl)cc2cc1C(N)=O | > 100 |  | 88.4 | > 100 |  | > 100 | > 100 | 75.1 | > 100 | 45.1 | > 100 |  | > 100 | > 100 | > 100 | 72.8 | > 100 | 82 | > 100 | > 100
17 | CC(=O)O[C@H]1C(=O)[C@@]2(C)C(C(OC(=O)c3ccccc3)[C@]3(O)CC(OC(=O)C(O)C(NC(=O)c4ccccc4)c4cccc(Cl)c4)C(C)=C1C3(C)C)[C@]1(OC(C)=O)CO[C@@H]1C[C@@H]2O (stereo partly drawn) | > 10 |  | > 10 | > 10 | > 10 | > 10 | 9.16 | > 10 | > 10 | > 10 | > 10 | > 10 |  | > 10 | > 10 | > 10 | > 10 | 5.06 | > 10 | 
18 | C[N+](C)(C)CCOP(=O)([O-])OCCNC(=O)c1ccc2ccccc2c1 | > 100 | > 100 | > 100 | > 100 | > 100 | > 100 | > 100 | > 100 | > 100 | > 100 | > 100 | > 100 | > 100 | > 100 | > 100 | > 100 | > 100 | > 100 | > 100 | 
19 | CSc1nc(Br)nc2ncn(C3CC(Oc4ccc(C)cc4)C(COc4ccc(C)cc4)O3)c12 (stereo not drawn) | > 100 | 75.7 | > 100 | > 100 | > 100 | > 100 | > 100 | > 100 | > 100 | > 100 | > 100 | > 100 |  | > 100 | > 100 | > 100 | > 100 | > 100 | > 100 | > 100
20 | O=C1OCCC[C@H]2O[C@@H](COCc3ccccc3)C[C@@H]12 | > 100 | > 100 | > 100 | > 100 |  |  | > 100 | > 100 | > 100 | > 100 | > 100 | > 100 |  | > 100 | > 100 | > 100 | > 100 | > 100 | > 100 | > 100
21 | N#CC1=C(N)OC(c2cccc([N+](=O)[O-])c2)C1(C#N)C#N (stereo not drawn) | 42.5 | 32.8 |  | > 100 | 28.8 | 35.4 | 31.2 | 39.3 | 87 | > 100 | 63.6 | 73.2 | 43.3 | > 100 |  | 51.4 | 92.8 | 59.2 |  | 36.7
22 | C=C1CC(C)(COc2ccc3c(C)cc(=O)oc3c2)OC1=O (stereo not drawn) | 28.4 | 18.9 | 17.4 | 25.4 | 0.491 | 8.98 | 8.96 | 14.1 | 20.2 | 16.8 | 3.35 | 16.3 |  | 15.1 | 2.46 | 13.5 | 14.8 | 8.92 | 4.2 | 
23 | COc1cc2c(cc1OC)C(=O)/C(=C/c1cc(Cl)cc(Cl)c1)C2 | > 100 | > 100 | > 21.4 | > 100 |  | > 100 | > 100 | > 100 | > 100 | > 100 | > 100 |  | > 100 | > 54.6 | > 100 | > 100 | > 100 | > 19.6 | > 100 | > 100
24 | Cc1ccc(/C=C2\NC(=S)N(CN3CCCCC3)C2=O)cc1 | > 100 | > 100 | > 100 | > 100 | > 100 | > 100 | > 100 | > 100 | > 100 | > 100 | > 100 | > 100 |  | > 100 | 86.7 | > 100 | > 100 | > 100 | > 100 | > 100
25 | CCCCc1ccc(Nc2nc(Cl)c3ncn(C4CC(Oc5ccc(C)cc5)C(COc5ccc(C)cc5)O4)c3n2)cc1 (stereo not drawn) | > 100 | > 100 | > 100 |  | > 100 | > 100 | > 100 | > 100 | > 100 | > 100 | > 100 | > 100 | > 100 | > 100 | > 100 |  | > 100 | > 100 | > 100 | > 100
